# Data taken from US4866058A, “Method for control of hyperlipidemia” (priority 1988, dated 1989).
# Like-named read-outs stand apart in the source and are kept apart here.
# Columns and labels:
# [1] = system: serum cholesterol and serum triglyceride levels; assay: Testing of normal mice: hypolipidemic activity in CF1 mice; format: in vivo, CF1 male mice; details: for response vs control in vivo at 20 mg/kg/day: Mus musculus
# Protocol: The following compounds were tested for their hypolpidemic activity in CF1 mice.
# Compounds A-V as defined above, were suspended in an aqueous 1 percent carboxymethylcellulose (CMC) solution and homogenized. Each of the so prepared compounds were administered to a group of six CF1 male mice, each weighing approximately 25 grams, intraperitioneally for 16 days. Each of these compounds were provided in a dosage of 20 mg/kg/d ip. On Days 9 and 16 blood was obtained by tail vein bleeding. The blood serum so obtained was separated by centrifugation for three minutes. Serum cholesterol levels were determined by a modification of the Liebermann-Burchard reaction (Ness, Clin. Chim. Acta., Vol. 10, 229 [1964]). Serum triglyceride levels were determined on Day 16 by use of the Fisher, Hycel Triglyceride Test Kit.
# In addition to the above-described treated mice, an untreated control group of six mice were similarly tested on Days 9 and 16 to determine their serum cholesterol and trigylceride blood levels. Based on the results obtained for the untreated control group, the percent control, based on serum cholesterol and serum triglyceride levels of the treated mice compared to the untreated mice, was obtained. Table 1 reports this percent control, including standard deviation, indicating the level of confidence of these numbers.
# [2] = system: serum cholesterol and serum triglyceride levels; assay: Testing of hyperlipidemic mice (atherogenic diet); format: in vivo, CF1 male mice; details: hyperlipidemic CF1 mice, 20 mg/kg/d intraperitoneally, Day 12
# Protocol: A group of six CF^1 male mice (about 25 g) were placed on a commercial diet (U.S. Biochemical Corporation Basal Atherogenic Test Diet) which produced a "hyperlipidemic" state. That is, the average serum cholesterol level in the group of treated mice was raised from 122 to 375 mg percent and triglyceride levels were raised from 137 to 367 mg/dL.
# in vivo = details: mouse, ip
# serum lipoprotein = assay: Cholesterol content of serum lipoprotein of treated Sprague-Dawley rats; format: in vivo; details: orally 14 days at 20 mg/kg/day
# Description: (§1) A test solution of Compounds A, F, J, M, N and O were suspended in an aqueous solution of 1% CMC, homogenized and administered orally to six Sprague-Dawley male rats, which each weighted approximately 350 grams. Administration of the compounds was by an intubation needle. The rats were each fed with 20 milligrams of Compounds A, F, J, M, N and O per kilogram of body weight per day for 14 days. Similarly, six Sprague-Dawley male rats of approximately the same weight (that used for testing F weighed approximately 160 grams) were fed similar volumes of the same aqueous 1% CMC solution without the active agents, also orally, administered by intubation needle. In addition, as a control, a similar group of six male Sprague-Dawley rats were untreated.
# The cholesterol content of serum lipoprotein
# of Sprague-Dawley Rats treated
# orally for 14 days at 20 mg/kg/day
# [3] = system: Serum cholesterol and triglyceride levels; assay: Serum testing of normal rats; format: in vivo, Sprague-Dawley male rats; details: 20 mg/kg per day orally
# Description: as §1
# On Days 7 and 14, blood was obtained from each of the rats of the three groups by tail vein bleeding. The blood obtained was separated by centrifugation for three minutes. Serum cholesterol and triglyceride levels were determined in accordance with the procedure of Example 6.
# [4] = LD50 value in mice as single injection IP; details: mouse, in vivo
# plasma lipids = details: rats; cited from earlier work
# [5] = normal CF1 mice, 20 mg/kg/d ip, Day 16
# [6] = 216 h, normal CF1 mice, 20 mg/kg/d ip, Day 9, read-out: Serum Cholesterol, Day 9
# [7] = 384 h, normal CF1 mice, 20 mg/kg/d ip, Day 16, read-out: Serum Cholesterol, Day 16
# [8] = 384 h, normal CF1 mice, 20 mg/kg/d ip, Day 16, read-out: Serum Triglyceride, Day 16
# [9] = ip, 216 h, read-out: Serum Cholesterol, Day 9
# [10] = ip, 384 h, read-out: Serum Cholesterol, Day 16
# [11] = ip, 384 h, read-out: Serum Triglyceride, Day 16
Compound,"response vs control in vivo at 20 mg/kg/day [1, 6] [%]","response vs control in vivo at 20 mg/kg/day [1, 7] [%]","response vs control in vivo at 20 mg/kg/day [1, 8] [%]",other results
"4-(4- -n-butyl)-1,2 dipentylcarbonyl-1,2,4-triazolidine-3,5-dione",,,,"Serum Cholesterol, Day 9 ([1]; normal CF1 mice, 20 mg/kg/d ip, Day 9): 69 percent control; Serum Cholesterol, Day 16 [1, 5]: 49 percent control; Serum Triglyceride, Day 16 [1, 5]: 53 percent control"
"CC(=O)n1[nH]c(=O)n(-c2ccccc2)c1=O [A, 4-phenyl-1-methylcarbonyl-1,2,4-triazolidine-3,5-dione]",67 ± 5,61 ± 6,48 ± 6,Serum Cholesterol [2]: 41% of Control; Serum Triglyceride [2]: 40% of Control; LD50 (in vivo): > 500 mg/kg
"CC(=O)n1c(=O)n(-c2ccccc2)c(=O)n1C(C)=O [B, 4-phenyl-1,2-dimethylcarbonyl-1,2,4-triazolidine-3,5-dione]",70 ± 6,64 ± 5,61 ± 5,
"CCOC(=O)n1[nH]c(=O)n(-c2ccccc2)c1=O [C, 4-phenyl-1-ethoxycarbonyl-1,2,4-triazolidine-3,5-dione]",73 ± 7,69 ± 5,62 ± 6,
"CC(=O)n1[nH]c(=O)n(-c2ccc(Cl)cc2)c1=O [Compound D, 4-(4-chlorophenyl)-1-methylcarbonyl-1,2,4-triazolidine-3,5-dione]",73 ± 4,64 ± 6,55 ± 7,
"CCOC(=O)c1nc(=O)n(-c2ccccc2)c(=O)[nH]1 [Compound N, 3-phenyl-6-ethoxycarbonyl-1,3,5-triazine-2,4(1 --H,3 --H)-dione]",63 ± 6,54 ± 5,51 ± 2,Serum Cholesterol [2]: 50% of Control; Serum Triglyceride [2]: 46% of Control; VLDL cholesterol (serum lipoprotein): 50% of Control
"CCC(=O)n1c(=O)n(-c2ccc([N+](=O)[O-])cc2)c(=O)n1C(=O)CC [Compound S, 4-(4-nitrophenyl)-1,2 diethylcarbonyl-1,2,4-triazolidine-3,5-dione]",72,36,62,
"O=c1[nH][nH]c(=O)n1-c1ccccc1 [E, 4-phenyl-1,2,4-triazolidine-3,5-dione]",71 ± 5,48 ± 3,68 ± 6,
"COc1ccc(-n2c(=O)[nH][nH]c2=O)cc1 [F, 4-(4-methoxyphenyl)-1,2,4-triazolidine-3,5-dione]",75 ± 5,56 ± 4,58 ± 3,
"CCCCn1c(=O)[nH][nH]c1=O [G, 4-(4-n-butyl)-1,2,4-triazolidine-3,5-dione]",71 ± 6,69 ± 5,79 ± 8,
"O=c1[nH][nH]c(=O)n1-c1ccc([N+](=O)[O-])cc1 [H, 4-(4-nitrophenyl)-1,2,4-triazolidine-3,5-dione]",73 ± 5,66 ± 5,47 ± 5,
"O=c1[nH][nH]c(=O)n1-c1ccc(Cl)cc1 [J, 4-(4-chlorophenyl)-1,2,4-triazolidine-3,5-dione]",90 ± 5,58 ± 4,43 ± 4,Serum Cholesterol [2]: 46% of Control; Serum Triglyceride [2]: 49% of Control; LD50 (in vivo): > 500 mg/kg
"Cn1c(=O)[nH][nH]c1=O [K, 4-methyl-1,2,4-triazolidine-3,5-dione]",88 ± 6,67 ± 5,89 ± 5,
"CCOC(=O)C1n2c(=O)n(-c3ccc(Cl)cc3)c(=O)n21 [L, 3-(4-chlorophenyl)-6-ethoxyacarbonyl-1,3,5-triazabicyclo[3.1.0]hexane-2,4-dione]",,,,"response vs control in vivo at 20 mg/kg/day [1, 9]: 74 ± 3%; response vs control in vivo at 20 mg/kg/day [1, 10]: 56 ± 5%; response vs control in vivo at 20 mg/kg/day [1, 11]: 66 ± 7%"
"CCOC(=O)C1n2c(=O)n(-c3ccccc3)c(=O)n21 [M, 3-phenyl-6-ethoxycarbonyl-1,3,5-triazabicyclo[3.1.0]hexane-2,4-dione]",,,,"response vs control in vivo at 20 mg/kg/day [1, 9]: 62 ± 6%; response vs control in vivo at 20 mg/kg/day [1, 10]: 57 ± 5%; response vs control in vivo at 20 mg/kg/day [1, 11]: 59 ± 6%; Serum Cholesterol [2]: 46% of Control; Serum Triglyceride [2]: 54% of Control; Serum Cholestrol, Day 7 ([3]; Day 7): 70% of Control; Serum Triglyceride, Day 7 ([3]; Day 7): 36% of Control; Serum Cholestrol, Day 14 ([3]; Day 14): 36% of Control; Serum Triglyceride, Day 14 ([3]; Day 14): 54% of Control; HDL cholesterol (serum lipoprotein): 340% of Control; LDL cholesterol (serum lipoprotein): 67% of Control; VLDL cholesterol (serum lipoprotein): 71% of Control; LD50 [4]: > 500 mg/kg"
"CCOC(=O)c1nc(=O)n(-c2ccc(Cl)cc2)c(=O)[nH]1 [O, 3-(4-chlorophenyl)-6-ethoxycarbonyl-1,3,5-triazine-2,4(1 --H,3 --H)-dione]",63 ± 4,57 ± 4,55 ± 6,
O=C(O)c1cc(=O)[nH]c(=O)[nH]1 [Orotic acid],,,,plasma lipids blood level (plasma lipids): decrease the plasma lipids blood level in rats
"COc1ccc(-n2c(=O)n(C(C)=O)n(C(C)=O)c2=O)cc1 [P, 4(4-methoxyphenyl)-1,2-dimethylcarbonyl-1,2,4-triazolidine-3,5-dione]",76,57,49,
"O=c1[nH][nH]c(=O)[nH]1 [Parent, 1,2,4-triazolidine-3,5-dione]",81,79,73,
"COc1ccc(-n2c(=O)n(C(=O)c3ccccc3)n(C(=O)c3ccccc3)c2=O)cc1 [Q, 4.(4-methoxyphenyl)-1,2-diphenylcarbonyl-1,2,4-triazolidine-3,5-dione]",67,86,75,
"CCC(=O)n1c(=O)n(-c2ccc(OC)cc2)c(=O)n1C(=O)CC [R, 4.(4-methoxyphenyl)-1,2 diethylcarbonyl-1,2,4-triazolidine-3,5-dione]",62,63,62,
"CC(=O)n1c(=O)n(-c2ccc(Cl)cc2)c(=O)n1C(C)=O [U, 4-(4-chlorophenyl)-1,2-dimethylcarbonyl-1,2,4-triazolidine-3,5-dione]",72,51,51,
"CCCCCC(=O)n1[nH]c(=O)n(-c2ccc(Cl)cc2)c1=O [V, 4-(4-chlorophenyl)1-pentylcarbonyl (2 --H)-1,2,4-triazolidine-3,5 dione]",77,52,42,
